Experimental data taken from ChEMBL document CHEMBL6153047, “Sulfilimines from a Medicinal Chemist's Perspective: Physicochemical and in Vitro Parameters Relevant for Drug Discovery” (J Med Chem, 2025).
Values after ≈ are worked out from the molar mass of the structure shown.

Experiment: Chemical stability assessed as compound decomposition at pH 10 and 40 degreeC measured after 3 days by HPLC-UV analysis
Format: physicochemical
Settings: buffer, time 3 day, read-out: Drug degradation

SMILES | degraded at 72 h
Cc1ccc(S(=N)(=O)c2ccccc2)cc1 (stereo not drawn) | < 0.5%
COC(=O)C(C(=O)OC)=S(NC(=O)C(C)(C)C)c1ccccc1 (stereo not drawn) | 7%
FC(F)(F)c1ccc(/S(=N\c2ccccc2)C2CC2)cc1 (stereo not drawn) | 7%
Cc1ccc(S(=N)C2CC2)cc1 (stereo not drawn) | 7%
COc1ccc(/S(=N/C(=O)C(C)(C)C)c2ccc(C)cc2)cc1 (stereo not drawn) | 1%

Experiment: Efflux ratio in human Caco-2 cells measured upto 2 hrs
Format: ADME, cell-based
Settings: caco-2, 2 h

SMILES | Ratio
C[S+]([O-])c1ccc(C(F)(F)F)cc1 (stereo not drawn) | 0.8
COc1ccc(/S(C)=N\C(=O)C(C)(C)C)cc1 (stereo not drawn) | 0.8
Cc1ccc(S(=O)(=O)c2ccccc2)cc1 | 0.6
Cc1ccc(S(=N)(=O)c2ccccc2)cc1 (stereo not drawn) | 0.8
COC(=O)C(C(=O)OC)=S(NC(=O)C(C)(C)C)c1ccccc1 (stereo not drawn) | < 1
FC(F)(F)c1ccc(/S(=N\c2ccccc2)C2CC2)cc1 (stereo not drawn) | 0.7
Cc1ccc(S(=N)C2CC2)cc1 (stereo not drawn) | 0.7
COc1ccc(/S(=N/C(=O)C(C)(C)C)c2ccc(C)cc2)cc1 (stereo not drawn) | 0.7

Experiment: Permeability across apical to basal side in human Caco-2 cells measured upto 2 hrs
Format: ADME, cell-based
Settings: caco-2, 2 h

SMILES | permeability
C[S+]([O-])c1ccc(C(F)(F)F)cc1 (stereo not drawn) | 130 10^-6 cm/s
COc1ccc(/S(C)=N\C(=O)C(C)(C)C)cc1 (stereo not drawn) | 69 10^-6 cm/s
Cc1ccc(S(=O)(=O)c2ccccc2)cc1 | 39 10^-6 cm/s
Cc1ccc(S(=N)(=O)c2ccccc2)cc1 (stereo not drawn) | 93 10^-6 cm/s
COC(=O)C(C(=O)OC)=S(NC(=O)C(C)(C)C)c1ccccc1 (stereo not drawn) | > 10 10^-6 cm/s
FC(F)(F)c1ccc(/S(=N\c2ccccc2)C2CC2)cc1 (stereo not drawn) | 43 10^-6 cm/s
COc1ccc(/S(=N/C(=O)C(C)(C)C)c2ccc(C)cc2)cc1 (stereo not drawn) | 72 10^-6 cm/s

Experiment: Stability in human hepatocytes assessed as hepatic extraction ratio at 1 uM incubated for 6 hrs by HPLC-MS/MS analysis
Format: ADME, cell-based, Hepatocyte
Settings: read-out: ERH

SMILES | hepatic extraction ratio at 6 h, 1 µM
C[S+]([O-])c1ccc(C(F)(F)F)cc1 (stereo not drawn) | 0.19
COc1ccc(/S(C)=N\C(=O)C(C)(C)C)cc1 (stereo not drawn) | 0.58
Cc1ccc(S(=O)(=O)c2ccccc2)cc1 | 0.78
Cc1ccc(S(=N)(=O)c2ccccc2)cc1 (stereo not drawn) | 0.46
CS(=N)(=O)c1ccc(C(F)(F)F)cc1 (stereo not drawn) | 0.08
FC(F)(F)c1ccc(/S(=N\c2ccccc2)C2CC2)cc1 (stereo not drawn) | 0.73
Cc1ccc(S(=N)C2CC2)cc1 (stereo not drawn) | 0.57
COc1ccc(/S(=N/C(=O)C(C)(C)C)c2ccc(C)cc2)cc1 (stereo not drawn) | 0.46

Experiment: Chemical stability assessed as compound decomposition at pH 4 and 40 degreeC measured after 3 days by HPLC-UV analysis
Format: physicochemical
Settings: buffer, time 3 day, read-out: Drug degradation

SMILES | degraded at 72 h
Cc1ccc(S(=N)(=O)c2ccccc2)cc1 (stereo not drawn) | < 0.5%
COC(=O)C(C(=O)OC)=S(NC(=O)C(C)(C)C)c1ccccc1 (stereo not drawn) | < 0.1%
FC(F)(F)c1ccc(/S(=N\c2ccccc2)C2CC2)cc1 (stereo not drawn) | 2%
Cc1ccc(S(=N)C2CC2)cc1 (stereo not drawn) | 3%
COc1ccc(/S(=N/C(=O)C(C)(C)C)c2ccc(C)cc2)cc1 (stereo not drawn) | 2%

Experiment: Stability in mouse liver microsomes assessed as hepatic extraction ratio at 1 uM preincubated with compound followed by NADPH addition by LC-MS/MS analysis
Format: ADME, Microsome
Settings: read-out: ERH

SMILES | hepatic extraction ratio at 1 µM
COc1ccc(/S(C)=N\C(=O)C(C)(C)C)cc1 (stereo not drawn) | 0.65
Cc1ccc(S(=N)(=O)c2ccccc2)cc1 (stereo not drawn) | 0.66
COC(=O)C(C(=O)OC)=S(NC(=O)C(C)(C)C)c1ccccc1 (stereo not drawn) | 0.63
CS(=N)(=O)c1ccc(C(F)(F)F)cc1 (stereo not drawn) | < 0.23
FC(F)(F)c1ccc(/S(=N\c2ccccc2)C2CC2)cc1 (stereo not drawn) | > 0.88
Cc1ccc(S(=N)C2CC2)cc1 (stereo not drawn) | < 0.23
COc1ccc(/S(=N/C(=O)C(C)(C)C)c2ccc(C)cc2)cc1 (stereo not drawn) | > 0.88

Experiment: Lipophilicity, logD of compound at pH 7.4 by UPLC-UV-MS analysis
Format: physicochemical
Settings: buffer

SMILES | logD
C[S+]([O-])c1ccc(C(F)(F)F)cc1 (stereo not drawn) | 1.9
COc1ccc(/S(C)=N\C(=O)C(C)(C)C)cc1 (stereo not drawn) | 2
Cc1ccc(S(=O)(=O)c2ccccc2)cc1 | 3.3
COC(=O)C(C(=O)OC)=S(NC(=O)C(C)(C)C)c1ccccc1 (stereo not drawn) | 2.5
CS(=N)(=O)c1ccc(C(F)(F)F)cc1 (stereo not drawn) | 1.5
FC(F)(F)c1ccc(/S(=N\c2ccccc2)C2CC2)cc1 (stereo not drawn) | 3.5
CS(=O)(=O)c1ccc(C(F)(F)F)cc1 | 2.3
COc1ccc(/S(=N/C(=O)C(C)(C)C)c2ccc(C)cc2)cc1 (stereo not drawn) | 4

Same assay, conditions: buffer, read-out: logD

SMILES | logD
Cc1ccc(S(=N)C2CC2)cc1 (stereo not drawn) | 0.3

Experiment: Stability in human liver microsomes assessed as hepatic extraction ratio at 1 uM preincubated with compound followed by NADPH addition by LC-MS/MS analysis
Format: ADME, Microsome
Settings: read-out: ERH

SMILES | hepatic extraction ratio at 1 µM
COc1ccc(/S(C)=N\C(=O)C(C)(C)C)cc1 (stereo not drawn) | 0.27
Cc1ccc(S(=N)(=O)c2ccccc2)cc1 (stereo not drawn) | 0.45
COC(=O)C(C(=O)OC)=S(NC(=O)C(C)(C)C)c1ccccc1 (stereo not drawn) | > 0.89
CS(=N)(=O)c1ccc(C(F)(F)F)cc1 (stereo not drawn) | < 0.23
FC(F)(F)c1ccc(/S(=N\c2ccccc2)C2CC2)cc1 (stereo not drawn) | > 0.89
Cc1ccc(S(=N)C2CC2)cc1 (stereo not drawn) | < 0.23
COc1ccc(/S(=N/C(=O)C(C)(C)C)c2ccc(C)cc2)cc1 (stereo not drawn) | 0.44

Experiment: Chemical stability assessed as compound decomposition at pH 7.4 and 40 degreeC measured after 3 days by HPLC-UV analysis
Format: physicochemical
Settings: buffer, time 3 day, read-out: Drug degradation

SMILES | degraded at 72 h
Cc1ccc(S(=N)(=O)c2ccccc2)cc1 (stereo not drawn) | < 0.5%
COC(=O)C(C(=O)OC)=S(NC(=O)C(C)(C)C)c1ccccc1 (stereo not drawn) | 6%
FC(F)(F)c1ccc(/S(=N\c2ccccc2)C2CC2)cc1 (stereo not drawn) | 9%
Cc1ccc(S(=N)C2CC2)cc1 (stereo not drawn) | 0.5%
COc1ccc(/S(=N/C(=O)C(C)(C)C)c2ccc(C)cc2)cc1 (stereo not drawn) | 2%

Experiment: Aqueous solubility of compound at pH 6.8 incubated for 24 hrs by LC-UV analysis
Format: physicochemical
Settings: buffer, pH 6.8, 24 h

SMILES | solubility
C[S+]([O-])c1ccc(C(F)(F)F)cc1 (stereo not drawn) | > 46 µg/mL
Cc1ccc(S(=N)(=O)c2ccccc2)cc1 (stereo not drawn) | > 47 µg/mL
COC(=O)C(C(=O)OC)=S(NC(=O)C(C)(C)C)c1ccccc1 (stereo not drawn) | > 76 µg/mL
CS(=N)(=O)c1ccc(C(F)(F)F)cc1 (stereo not drawn) | > 50 µg/mL
FC(F)(F)c1ccc(/S(=N\c2ccccc2)C2CC2)cc1 (stereo not drawn) | 41 µg/mL (≈ 133 µM)
Cc1ccc(S(=N)C2CC2)cc1 (stereo not drawn) | 27 µg/mL (≈ 151 µM)
CS(=O)(=O)c1ccc(C(F)(F)F)cc1 | > 47 µg/mL
COc1ccc(/S(=N/C(=O)C(C)(C)C)c2ccc(C)cc2)cc1 (stereo not drawn) | 59 µg/mL (≈ 179 µM)

Experiment: Dissociation constant, pKa of compound by UV spectroscopy
Format: physicochemical
Settings: not given

SMILES | pKa
Cc1ccc(S(=N)(=O)c2ccccc2)cc1 (stereo not drawn) | 2.4
CS(=N)(=O)c1ccc(C(F)(F)F)cc1 (stereo not drawn) | 2.5
FC(F)(F)c1ccc(/S(=N\c2ccccc2)C2CC2)cc1 (stereo not drawn) | 7.2
Cc1ccc(S(=N)C2CC2)cc1 (stereo not drawn) | 10.9

Experiment: Chemical stability assessed as compound decomposition at pH 1 and 40 degreeC measured after 3 days by HPLC-UV analysis
Format: physicochemical
Settings: buffer, time 3 day, read-out: Drug degradation

SMILES | degraded at 72 h
Cc1ccc(S(=N)(=O)c2ccccc2)cc1 (stereo not drawn) | < 0.5%
COC(=O)C(C(=O)OC)=S(NC(=O)C(C)(C)C)c1ccccc1 (stereo not drawn) | 58%
FC(F)(F)c1ccc(/S(=N\c2ccccc2)C2CC2)cc1 (stereo not drawn) | 80%
Cc1ccc(S(=N)C2CC2)cc1 (stereo not drawn) | 8%
COc1ccc(/S(=N/C(=O)C(C)(C)C)c2ccc(C)cc2)cc1 (stereo not drawn) | < 0.5%
